Assay results taken from patent publication US20180092908A1, “SMALL MOLECULE OXIDIZERS OF PDI AND THEIR USE” (THE TRUSTEES OF COLUMBIA UNIVERSITY IN THE CITY OF NEW YORK, priority 2015, published 2018).
Values after ≈ are worked out from the molar mass of the structure shown. Like-named read-outs stand apart in the source and are kept apart here.

Experiments:
PC12 mHTT^Q103 cells = test: Rescue of PC12 cells from mHTT^Q103 induced cell death (Alamar blue viability); assay type: cell-based; conditions: Rattus norvegicus, PC-12; Table 5; read-out: Cell Viability Assay EC50
Excerpt: PC12 mHTT^Q103 cells were a gift from Erik S. Schweitzer (UCLA School of Medicine, Los Angeles, Calif.). These cells are stably transfected with the first exon of human HTT gene containing the pathogenic 103 CAG/CAA repeat expansion, under the control of the ecdysteroid promoter (Aiken et al., 2004). The plasmid also contains a Bombyx mori ecdysone receptor gene fused at N-terminal with VP16 transactivation domain (Suhr et al., 1998; Vilaboa et al., 2011). Addition of the ecdysone analog, tebufenozide, to the cell culture medium is used to initiate the transcription of mutant HTT (Aiken et al., 2004).
PC12 mHTT^Q103 cells were cultured in DMEM containing 4.5 g/I glucose, 25 mM HEPES, sodium pyruvate, and no L-glutamine (Mediatech, cat. no. 15-018-CV), supplemented with 10% (v/v) Cosmic Calf serum, 2 mM L-glutamine, 100 units/mL of penicillin-streptomycin, and 0.5 mg/ml active geneticin. Cells were grown at 37° C., 9.5% CO2, and the medium was replaced with fresh medium every 2-3 days. To induce mHTT^Q103 expression for experiments, tebufenozide, a gift from Lynne Moore and Fred H. Gage (The Salk Institute for Biological Studies, La Jolla, Calif.), was added to the medium at 200 nM final concentration from 1 mM stock in 85% ethanol.
LOC mother plates with compounds at 4 mg/ml were thawed and spun down (1000 rpm, 20° C., 1 min) prior to use. Biomek FX (Beckman Coulter) robotic liquid dispenser was used to handle all liquid transferring and mixing. […] Two fold serial dilution was performed across five daughter plates by transferring 50 μl of compounds (at […]) from the D1 plate into 50 μl of PC12 medium in daughter plate D2, mixing, and then repeating the process for the remaining three plates. Daughter plate D1 with compounds at […], daughter plate D3 with compounds at 20 μl/ml and daughter plate D5 with compounds at 5 μl/ml were then used for the screen. Assay plates were set up by seeding tebufenozide-induced PC12 mHTT^Q103 cells into 384-well black, clear-bottom plates (Corning Inc. cat. no. 3712) at a density of 7,500 cells per well in 57 μl PC12 medium without geneticin. Three microliters of compound from the daughter plates (D1, D3, and D5) were added to the assay plates for a final compound concentration of 4 μl/ml, 1 μl/ml, and 0.25 μl/ml. Four wells containing uninduced PC12 mHTT^Q103 cells and four wells containing medium only, were also included on each plate as controls. The assay plates were incubated at 37° C., 9.5% CO2 for 48 hours. Twenty microliters of 40% Alamar blue (Life Technologies cat. no. DAL1100) solution in PC12 medium was added to each well (1:10 final dilution) and the plates were incubated for an additional 12-24 hours at 37° C., 9.5% CO2. Alamar blue fluorescence was read on a fluorescence plate reader (PerkinElmer Victor3) with 530 nm excitation filter and 590 nm emission filter. Each compound concentration was tested in triplicate.
The follow-up testing of primary screen hits was performed in a similar way. Fresh powder stocks of primary hits were re-ordered from vendors, dissolved in DMSO and tested in a two-fold serial dilution across 10 wells in both tebufenozide-induced and uninduced PC12 mHTT^Q103 cells. Dose-response curves were plotted as mean±SD and fit to either four-parameter sigmoidal (for uninduced cells) or bell-shaped (induced) function using Prism (GraphPad Software).
A cascade of two assays was used, involving both a phenotypic high-throughput screening (HTS) assay and an in vitro PDI reductase assay, to identify neuroprotective PDI-inhibiting compounds. […] Alamar blue was used as a fluorescent readout for viability after 48 hours of compound treatment and mHTT^Q103 induction. […] All the candidate hit compounds were re-tested in a two-fold dilution series.

[1] = biological target: T1, recombinant catalytic a domain of human PDI A1 (PDIa) (Homo sapiens, UniProt P07237); test: Insulin aggregation assay (PDIa reductase activity); assay type: biochemical; conditions: Table 5
T1 construct: made in house; host or cells: Escherichia coli BL21-Gold (DE3)
Excerpt: In this insulin aggregation assay (Xu et al., 2012; Jasuja et al., 2012; Khan et al., 2011; Smith et al., 2004), PDIa reduced the two disulfide bonds between the α- and β-chains of insulin, causing the β-chain to aggregate and precipitate, resulting in an increase in absorbance at 650 nm.
To investigate the mode of binding further and to determine whether the binding was reversible or irreversible, the recovery of enzymatic activity of PDIa after dilution of pre-formed concentrated PDIa-LOC14 complexes was analyzed. LOC14 (750 μM) was incubated with a concentrated solution of PDIa (500 μM). The mixture was then diluted 100-fold and PDI's enzymatic activity was measured in the insulin reduction assay. As a control, the same procedure was also performed on the sample containing an irreversible inhibitor, 16F16 (16F16 at 750 μM and PDIa at 500 μM). […] This illustrated that unlike 16F16, LOC14 binding to PDIa is reversible.

physchem = conditions: organic solvent or mixture
[2] = biological target: T2, human catalytic PDI A1 a domain (PDIa) (Homo sapiens, UniProt P07237); test: Isothermal titration calorimetry (ITC) binding to PDIa; conditions: PDIa
T2 construct: made in house; host or cells: Escherichia coli BL21-Gold (DE3)
Protocol: All ITC experiments were carried out at 25° C. on MicoCal Auto-ITC200 system (GE Healthcare). Reduced PDIa was dialyzed into ITC buffer (20 mM sodium phosphate buffer pH 7.8) and loaded into a sample cell at 40 μM concentration. The compound solution was loaded into a syringe at 400 μM in the same ITC buffer with a final DMSO concentration at 0.4% (v/v). ITC titration experiments were carried out at 25° C. with 19 injections, 2 μl per injection, and 180 seconds between each injection. The reference cell power was set to 5 μcal/sec. A control experiment was performed for each compound, where each compound was titrated into buffer to account for heat released due to dilution. This background was subtracted from test data before a final dissociation constant was obtained. Data were analyzed using a one-site binding model in Origin 7.1 software. […] Gibbs free energy, ΔG, was calculated from equation ΔG=ΔH−TΔS. All other parameters, Ka, n, ΔH, ΔS, were determined directly from the titration data.
For ITC experiments with 16F16 pre-treatment, 40 μM PDIa (after dialysis into ITC buffer) was treated with 200 μM 16F16 for 12-15 hours at 4° C. Next day the whole solution was loaded into the sample cell. LOC14 at 400 μM in ITC buffer was loaded into syringe and titrated into PDIa+16F16 loaded cell. For control experiments, ITC buffer with 200 μM 16F16 was used in the cell, while 400 μM LOC14 in ITC buffer was used in the syringe.
The binding mode of LOC14 to PDIa was next investigated using isothermal titration calorimetry (ITC). ITC measures the heat released or absorbed during a biomolecular interaction. It is a direct analytical method for determining the binding and thermodynamic parameters, such as reaction stoichiometry (n), binding constants (Ka and Kd), enthalpy (ΔH), entropy (ΔS), and free energy (ΔG) of an interaction.

Solubility = conditions: DMSO, Table 5
[3] = Table 5, read-out: ITC Assay KD

T2 sequence (P07237 with tags, fused parts or gaps): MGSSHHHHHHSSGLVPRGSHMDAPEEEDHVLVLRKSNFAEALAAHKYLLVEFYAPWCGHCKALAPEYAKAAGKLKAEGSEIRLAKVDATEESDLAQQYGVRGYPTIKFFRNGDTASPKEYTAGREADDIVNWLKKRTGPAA
T1 sequence (P07237 with tags, fused parts or gaps): as above

Row | SMILES | Insulin Assay (either active or inactive) [1] | solubility (physchem; DMSO) | ITC Assay KD ([2]; Table 5) | Kd ([2]; Table 4, read-out: ITC KD) | Kd [2, 3] | Solubility in DMSO (Solubility) | ITC KD ([2]; Table 4) | EC50 (PC12 mHTT^Q103 cells) | solubility (physchem)
1 | CC(C)(C)OC(=O)N1CCC(COc2nsc3ccccc23)CC1 [LC-16] | not active | 50 mM (≈ 17400 µg/mL) | KD = N/A irreversible or not active |  |  |  |  | > 50 µM | 
2 | O=c1c2ccccc2sn1CN1CCC(CO)CC1 [LC-4] | Active |  |  | 0.265 µM | 0.265 µM | 100 mM in DMSO |  | 0.343 µM | 
3 | O=C(Nc1ccccc1)c1ccccc1S [LC-19] | not active |  | KD = N/A irreversible or not active |  |  |  |  |  | 50 mM (≈ 11500 µg/mL)
4 | O=c1[nH]sc2ncccc12 [LC-47] | not active | 50 mM (≈ 7610 µg/mL) | KD = N/A irreversible or not active |  |  |  |  | > 50 µM | 
5 | Cc1nc2s[nH]c(=O)c2c(C)c1C [LC-51] | Active | 10 mM (≈ 1940 µg/mL) |  |  |  |  |  | 2.2 µM | 
6 | O=C(Nc1ccccc1)n1sc2ccccc2c1=O [LC-6, 3-oxo-N-phenylbenzo[d]isothiazole-2(3H)-carboxamide] | not active | 50 mM (≈ 13500 µg/mL) | KD = N/A irreversible or not active |  |  |  | KD = not active | 0.476 µM | 

Second part, led by results:

Row | Insulin Assay (either active or inactive) [1] | solubility (physchem; DMSO) | ITC Assay KD ([2]; Table 5) | Kd ([2]; Table 4, read-out: ITC KD) | Kd [2, 3] | Solubility in DMSO (Solubility) | ITC KD ([2]; Table 4) | SMILES | EC50 (PC12 mHTT^Q103 cells) | solubility (physchem)
7 | Active | 25 mM (≈ 8660 µg/mL) |  |  |  |  |  | Cc1cc(C)c2c(=O)n(CN3CCN(C(=O)C4CC4)CC3)sc2n1 [LC-53] | 4.2 µM | 
8 | Active | 10 mM (≈ 3600 µg/mL) |  |  |  |  |  | Cc1nc2sn(CN3CCN(C(=O)C4CC4)CC3)c(=O)c2c(C)c1C [LC-52] | 3.57 µM | 
9 | Active |  |  |  |  | 100 mM in DMSO |  | Cc1nnc2sn(C(C)N3CCC(C(=O)C4CC4)CC3)c(=O)c2c1C (stereo not shown) [LC-59] | 10.6 µM | 
10 | Active |  |  | 0.14 µM | 0.14 µM | 100 mM in DMSO |  | O=c1c2ccccc2sn1CN1CCN(c2ncccn2)CC1 [LC-12] | 0.416 µM | 
11 | Active |  |  | 0.19 µM | 0.19 µM | 100 mM in DMSO |  | CC(=O)c1ccc(N2CCN(Cn3sc4ccccc4c3=O)CC2)cc1 [LC-13] | 0.514 µM | 
